Assay results reported in US20060069132A1, “Azolecarboxamide herbicides” (priority 2004, published 2006).
Like-named read-outs stand apart in the source and are kept apart here.

Experiments:
[1] = system: pigweed; test: Test B pre-/postemergence herbicide test; assay type: in vivo, Amaranthus retroflexus; details: Amaranthus retroflexus, 336 h; for pest or weed control at 125 g/ha: 125 g ai/ha
How it was run: (§1)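 Pre: seeds sown, then sprayed. Post: 1–4-leaf plants (2–18 cm) sprayed at the same time. Paddy: flooded, treated at 2-leaf stage. Formulation: non-phytotoxic solvent with surfactant. Greenhouse 13–15 days; visual 0–100 score relative to controls.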

[2] = system: morningglory; test: Test B pre-/postemergence herbicide test; assay type: in vivo, Ipomoea coccinea; details: Ipomoea, 336 h; for pest or weed control at 125 g/ha: 125 g ai/ha
How it was run: (§2)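 Visual rating, 0 (no effect) to 100 (complete control), versus untreated controls after 13–15 d in greenhouse. Pre- and postemergence applications (postemergence plants 2–18 cm, 1–4 leaves); flooded paddy arm at 2-leaf stage. Compounds in non-phytotoxic solvent plus surfactant.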

[3] = system: corn; test: Test B pre-/postemergence herbicide test; assay type: in vivo, Zea mays; details: Zea mays; for plant injury at 125 g/ha: 125 g ai/ha
How it was run: as §1

[4] = system: wild oat; test: Test B postemergence herbicide test; assay type: in vivo, Avena fatua; details: Avena fatua, post-emergence, 336 h, postemergence, read-out: Oat, Wild plant response rating
How it was run: (§3)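 After treating 2-leaf paddy plants or 2–18 cm postemergence plants (1 to 4 leaves) with formulated chemical, researchers kept them in a greenhouse for 13–15 days. Effects were judged visually versus controls: 0 indicates none, 100 total control.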

[5] = system: small flower umbrella sedge; test: Test B flooded paddy test; assay type: in vivo, Cyperus difformis; details: Cyperus difformis, 336 h, 1000 g ai/ha, visual rating, scale 0 to 100 (0 no effect, 100 complete control), 13 to 15 days, read-out: Sedge, Umbrella plant response rating
How it was run: (§4)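 Visual ratings, 0 (no effect) to 100 (complete control), made versus controls after 13–15 d greenhouse. Paddy plants treated at 2-leaf stage; postemergence plants at 1- to 4-leaf stage, 2–18 cm tall.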

[6] = system: Surinam grass; test: Test B pre-/postemergence herbicide test; assay type: in vivo, Urochloa decumbens; details: Urochloa decumbens; for pest or weed control at 125 g/ha: 125 g ai/ha
How it was run: as §1

[7] = system: rice; test: Test B flooded paddy test; assay type: in vivo, Oryza sativa; details: Oryza sativa, 336 h, 1000 g ai/ha, visual rating, scale 0 to 100 (0 no effect, 100 complete control), 13 to 15 days, read-out: Rice plant response rating
How it was run: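 Plants grow to 1- to 4-leaf stage (2–18 cm) for postemergence spraying, or to 2-leaf stage for the paddy test. Formulated compound is applied. Greenhouse holding lasts 13–15 days. Response is scored visually relative to controls, 0 no effect to 100 complete control; a dash means no result.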

[8] = system: cocklebur; test: Test B pre-/postemergence herbicide test; assay type: in vivo, Xanthium strumarium; details: Xanthium strumarium; for pest or weed control at 125 g/ha: 125 g ai/ha
How it was run: as §2

[9] = system: wheat; test: Test B postemergence herbicide test; assay type: in vivo, Triticum aestivum; details: Triticum aestivum, post-emergence, 336 h, postemergence, read-out: Wheat plant response rating
How it was run: as §3

[10] = system: barnyardgrass; test: Test B flooded paddy test; assay type: in vivo, Echinochloa crus-galli; details: Echinochloa crus-galli, 336 h, 1000 g ai/ha, visual rating, scale 0 to 100 (0 no effect, 100 complete control), 13 to 15 days, read-out: Barnyardgrass plant response rating
How it was run: as §4

[11] = system: large crabgrass; test: Test B pre-/postemergence herbicide test; assay type: in vivo, Digitaria sanguinalis; details: Digitaria sanguinalis; for pest or weed control at 125 g/ha: 125 g ai/ha
How it was run: as §1

[12] = system: velvetleaf; test: Test B pre-/postemergence herbicide test; assay type: in vivo, Abutilon theophrasti; details: Abutilon theophrasti, 336 h; for pest or weed control at 125 g/ha: 125 g ai/ha
How it was run: as §1

[13] = system: giant foxtail; test: Test B pre-/postemergence herbicide test; assay type: in vivo, Setaria faberi; details: Setaria faberi, 336 h; for pest or weed control at 125 g/ha: 125 g ai/ha
How it was run: as §1

[14] = system: barnyardgrass; test: Test B pre-/postemergence herbicide test; assay type: in vivo, Echinochloa crus-galli; details: Echinochloa crus-galli; for pest or weed control at 125 g/ha: 125 g ai/ha
How it was run: as §2

[15] = system: lambsquarters; test: Test B pre-/postemergence herbicide test; assay type: in vivo, Chenopodium album; details: Chenopodium album, 336 h; for pest or weed control at 125 g/ha: 125 g ai/ha
How it was run: as §1

[16] = 125 g ai/ha, visual rating, scale 0 (no effect) to 100 (complete control)

## CCc1cn(C(C)(C)C)nc1C(=O)Nc1cccc(C(=O)N(CC)CC)c1 [Compound 168, N-[3-[(diethylamino)carbonyl]phenyl]-1-(1,1-dimethylethyl)-4-ethyl-1H-pyrazole-3-carboxamide]
[1]; post-emergence, postemergence, 31 g ai/ha, scale 0 to 100, read-out: Pigweed plant response rating
  pest or weed control at 31 g/ha: 50%
[1]; post-emergence, postemergence, visual rating, scale 0 (no effect) to 100 (complete control), read-out: Pigweed plant response rating
  pest or weed control at 125 g/ha: 70%
[1]; pre-emergence, 0 = no effect, 100 = complete control, read-out: Pigweed plant response rating (0 to 100 scale)
  pest or weed control at 125 g/ha: 100%
[2]; post-emergence, postemergence, 31 g ai/ha, scale 0 to 100, read-out: Morningglory plant response rating
  pest or weed control at 31 g/ha: 20%
[2]; post-emergence, postemergence, visual rating, scale 0 (no effect) to 100 (complete control), read-out: Morningglory plant response rating
  pest or weed control at 125 g/ha: 70%
[2]; pre-emergence, 0 = no effect, 100 = complete control, read-out: Morningglory plant response rating (0 to 100 scale)
  pest or weed control at 125 g/ha: 0%
[3]; post-emergence, postemergence, 31 g ai/ha, scale 0 to 100, read-out: Corn plant response rating
  plant injury at 31 g/ha: 10%
[3]; post-emergence, postemergence, visual rating, scale 0 (no effect) to 100 (complete control), read-out: Corn plant response rating
  plant injury at 125 g/ha: 50%
[3]; pre-emergence, 0 = no effect, 100 = complete control, read-out: Corn plant response rating (0 to 100 scale)
  plant injury at 125 g/ha: 0%
[4]; 31 g ai/ha, scale 0 to 100
  pest or weed control at 31 g/ha: 10%
[4]; [16]
  pest or weed control at 125 g/ha: 20%
[5]
  pest or weed control at 1000 g/ha: 90%
[6]; post-emergence, postemergence, 31 g ai/ha, scale 0 to 100, read-out: Surinam Grass plant response rating
  pest or weed control at 31 g/ha: 10%
[6]; post-emergence, postemergence, visual rating, scale 0 (no effect) to 100 (complete control), read-out: Surinam Grass plant response rating
  pest or weed control at 125 g/ha: 20%
[6]; pre-emergence, 0 = no effect, 100 = complete control, read-out: Surinam Grass plant response rating (0 to 100 scale)
  pest or weed control at 125 g/ha: 50%
[7]
  plant injury at 1000 g/ha: 40%
[8]; post-emergence, postemergence, 31 g ai/ha, scale 0 to 100, read-out: Cocklebur plant response rating
  pest or weed control at 31 g/ha: 30%
[8]; post-emergence, postemergence, visual rating, scale 0 (no effect) to 100 (complete control), read-out: Cocklebur plant response rating
  pest or weed control at 125 g/ha: 70%
[8]; pre-emergence, 0 = no effect, 100 = complete control, read-out: Cocklebur plant response rating (0 to 100 scale)
  pest or weed control at 125 g/ha: 0%
[9]; 31 g ai/ha, scale 0 to 100
  plant injury at 31 g/ha: 0%
[9]; [16]
  plant injury at 125 g/ha: 20%
[10]
  pest or weed control at 1000 g/ha: 50%
[11]; post-emergence, postemergence, 31 g ai/ha, scale 0 to 100, read-out: Crabgrass, Large plant response rating
  pest or weed control at 31 g/ha: 10%
[11]; post-emergence, postemergence, visual rating, scale 0 (no effect) to 100 (complete control), read-out: Crabgrass, Large plant response rating
  pest or weed control at 125 g/ha: 20%
[11]; pre-emergence, 0 = no effect, 100 = complete control, read-out: Crabgrass, Large plant response rating (0 to 100 scale)
  pest or weed control at 125 g/ha: 100%
[12]; post-emergence, postemergence, 31 g ai/ha, scale 0 to 100, read-out: Velvetleaf plant response rating
  pest or weed control at 31 g/ha: 10%
[12]; post-emergence, postemergence, visual rating, scale 0 (no effect) to 100 (complete control), read-out: Velvetleaf plant response rating
  pest or weed control at 125 g/ha: 20%
[12]; pre-emergence, 0 = no effect, 100 = complete control, read-out: Velvetleaf plant response rating (0 to 100 scale)
  pest or weed control at 125 g/ha: 60%
[13]; post-emergence, postemergence, 31 g ai/ha, scale 0 to 100, read-out: Foxtail, Giant plant response rating
  pest or weed control at 31 g/ha: 0%
[13]; post-emergence, postemergence, visual rating, scale 0 (no effect) to 100 (complete control), read-out: Foxtail, Giant plant response rating
  pest or weed control at 125 g/ha: 20%
[13]; pre-emergence, 0 = no effect, 100 = complete control, read-out: Foxtail, Giant plant response rating (0 to 100 scale)
  pest or weed control at 125 g/ha: 90%
[14]; post-emergence, postemergence, 31 g ai/ha, scale 0 to 100, read-out: Barnyardgrass plant response rating
  pest or weed control at 31 g/ha: 0%
[14]; post-emergence, postemergence, visual rating, scale 0 (no effect) to 100 (complete control), read-out: Barnyardgrass plant response rating
  pest or weed control at 125 g/ha: 50%
[14]; pre-emergence, 0 = no effect, 100 = complete control, read-out: Barnyardgrass plant response rating (0 to 100 scale)
  pest or weed control at 125 g/ha: 70%
[15]; post-emergence, postemergence, 31 g ai/ha, scale 0 to 100, read-out: Lambsquarters plant response rating
  pest or weed control at 31 g/ha: 50%
[15]; post-emergence, postemergence, visual rating, scale 0 (no effect) to 100 (complete control), read-out: Lambsquarters plant response rating
  pest or weed control at 125 g/ha: 70%
[15]; pre-emergence, 0 = no effect, 100 = complete control, read-out: Lambsquarters plant response rating (0 to 100 scale)
  pest or weed control at 125 g/ha: 90%
